Results: the NIST ThermoML archive (doi:10.1016/j.jct.2008.12.010)
± gives the expanded uncertainty stated by the source.

Test: xn = mol fraction of the nth substance listed
Settings: for speed of sound / mass density: Liquid; for speed of sound: Linear variable-path acoustic interferometer; for mass density: Vibrating tube method; for surface tension liquid-gas: Drop volume

CCOC(=O)OCC [diethyl carbonate] + Cc1ccc(C)cc1
Settings	mass density [kg/m3]	speed of sound [m/s]	surface tension liquid-gas [mN/m]
288.15 K, x1 = 0.0509	871.12 ± 0.23	1343.5 ± 2	–
288.15 K, x1 = 0.0985	876.57 ± 0.23	1336.8 ± 1.9	–
288.15 K, x1 = 0.1975	887.94 ± 0.21	1322.8 ± 1.9	–
288.15 K, x1 = 0.2974	899.4 ± 0.2	1308.7 ± 1.9	–
288.15 K, x1 = 0.3983	910.97 ± 0.19	1294.6 ± 1.9	–
288.15 K, x1 = 0.5023	922.91 ± 0.18	1280.2 ± 1.8	–
288.15 K, x1 = 0.5485	928.22 ± 0.17	1274 ± 1.8	–
288.15 K, x1 = 0.5968	933.78 ± 0.17	1267.5 ± 1.8	–
288.15 K, x1 = 0.6464	939.5 ± 0.17	1261 ± 1.8	–
288.15 K, x1 = 0.6992	945.6 ± 0.16	1254.2 ± 1.8	–
288.15 K, x1 = 0.7976	956.98 ± 0.15	1241.8 ± 1.7	–
288.15 K, x1 = 0.8515	963.21 ± 0.15	1235.1 ± 1.7	–
288.15 K, x1 = 0.9	968.83 ± 0.14	1229.4 ± 1.7	–
288.15 K, x1 = 0.9507	974.69 ± 0.14	1223.5 ± 1.7	–
293.15 K, x1 = 0.04951	866.58 ± 0.23	1322.7 ± 1.9	–
293.15 K, x1 = 0.09841	872.13 ± 0.23	1315.9 ± 1.9	–
293.15 K, x1 = 0.2007	883.74 ± 0.21	1301.6 ± 1.9	–
293.15 K, x1 = 0.3004	895.04 ± 0.2	1287.6 ± 1.9	–
293.15 K, x1 = 0.4017	906.52 ± 0.19	1273.5 ± 1.8	–
293.15 K, x1 = 0.4997	917.64 ± 0.18	1260 ± 1.8	–
293.15 K, x1 = 0.5976	928.79 ± 0.17	1246.8 ± 1.8	–
293.15 K, x1 = 0.65	934.76 ± 0.17	1239.9 ± 1.8	–
293.15 K, x1 = 0.6999	940.46 ± 0.16	1233.4 ± 1.8	–
293.15 K, x1 = 0.7969	951.55 ± 0.15	1221.2 ± 1.7	–
293.15 K, x1 = 0.8522	957.87 ± 0.15	1214.5 ± 1.7	–
293.15 K, x1 = 0.9516	969.28 ± 0.14	1203.1 ± 1.7	–
298.15 K, x1 = 0.05081	862.33 ± 0.23	1301.4 ± 1.9	–
298.15 K, x1 = 0.05201	–	–	27.27 ± 0.28
298.15 K, x1 = 0.09983	–	–	27.12 ± 0.28
298.15 K, x1 = 0.1564	874.2 ± 0.22	1286.7 ± 1.9	–
298.15 K, x1 = 0.2023	–	–	26.85 ± 0.27
298.15 K, x1 = 0.2581	885.6 ± 0.21	1272.5 ± 1.9	–
298.15 K, x1 = 0.3052	890.87 ± 0.2	1265.9 ± 1.9	–
298.15 K, x1 = 0.3063	–	–	26.61 ± 0.27
298.15 K, x1 = 0.4021	901.73 ± 0.19	1252.4 ± 1.8	–
298.15 K, x1 = 0.4043	–	–	26.39 ± 0.26
298.15 K, x1 = 0.4446	–	–	26.31 ± 0.26
298.15 K, x1 = 0.4941	912.05 ± 0.18	1239.7 ± 1.8	–
298.15 K, x1 = 0.5014	912.87 ± 0.18	1238.7 ± 1.8	–
298.15 K, x1 = 0.5042	–	–	26.19 ± 0.26
298.15 K, x1 = 0.5936	–	–	26.01 ± 0.26
298.15 K, x1 = 0.5966	923.58 ± 0.17	1226 ± 1.8	–
298.15 K, x1 = 0.6896	934.06 ± 0.16	1213.8 ± 1.8	–
298.15 K, x1 = 0.7041	–	–	25.8 ± 0.26
298.15 K, x1 = 0.7459	940.42 ± 0.16	1206.7 ± 1.7	–
298.15 K, x1 = 0.7994	–	–	25.65 ± 0.25
298.15 K, x1 = 0.8968	–	–	25.52 ± 0.25
298.15 K, x1 = 0.8987	957.7 ± 0.15	1188.4 ± 1.7	–
298.15 K, x1 = 0.9492	963.41 ± 0.14	1182.6 ± 1.7	–
303.15 K, x1 = 0.05001	857.79 ± 0.23	1280.6 ± 1.9	–
303.15 K, x1 = 0.09883	863.2 ± 0.23	1274 ± 1.9	–
303.15 K, x1 = 0.1971	874.11 ± 0.22	1260.3 ± 1.9	–
303.15 K, x1 = 0.3068	886.26 ± 0.2	1245 ± 1.8	–
303.15 K, x1 = 0.3908	895.57 ± 0.19	1233.2 ± 1.8	–
303.15 K, x1 = 0.499	907.57 ± 0.18	1218.4 ± 1.8	–
303.15 K, x1 = 0.5482	913.03 ± 0.18	1211.7 ± 1.8	–
303.15 K, x1 = 0.6011	918.91 ± 0.17	1204.7 ± 1.8	–
303.15 K, x1 = 0.6472	924.05 ± 0.17	1198.6 ± 1.8	–
303.15 K, x1 = 0.6979	929.7 ± 0.16	1192.1 ± 1.7	–
303.15 K, x1 = 0.7962	940.68 ± 0.16	1179.8 ± 1.7	–
303.15 K, x1 = 0.9007	952.41 ± 0.15	1167.4 ± 1.7	–
303.15 K, x1 = 0.951	958.07 ± 0.14	1161.6 ± 1.7	–
308.15 K, x1 = 0.09736	858.51 ± 0.23	1253.3 ± 1.9	–
308.15 K, x1 = 0.2045	870.25 ± 0.21	1238.5 ± 1.9	–
308.15 K, x1 = 0.2963	880.29 ± 0.2	1225.7 ± 1.8	–
308.15 K, x1 = 0.4046	892.15 ± 0.19	1210.4 ± 1.8	–
308.15 K, x1 = 0.4955	902.1 ± 0.18	1197.8 ± 1.8	–
308.15 K, x1 = 0.5478	907.85 ± 0.18	1190.9 ± 1.8	–
308.15 K, x1 = 0.6058	914.21 ± 0.17	1183.1 ± 1.8	–
308.15 K, x1 = 0.657	919.84 ± 0.17	1176.5 ± 1.7	–
308.15 K, x1 = 0.6936	923.87 ± 0.17	1171.9 ± 1.7	–
308.15 K, x1 = 0.7468	929.74 ± 0.16	1165.2 ± 1.7	–
308.15 K, x1 = 0.8022	935.86 ± 0.16	1158.4 ± 1.7	–
308.15 K, x1 = 0.9035	947.12 ± 0.15	1146.5 ± 1.7	–

Cc1ccc(C)cc1 [1,4-dimethylbenzene] + CCCCCCCCCC
Settings	mass density [kg/m3]	speed of sound [m/s]	surface tension liquid-gas [mN/m]
288.15 K, x1 = 0.1092	742.78 ± 0.24	1276.2 ± 1.9	–
288.15 K, x1 = 0.1984	750.98 ± 0.24	1278.7 ± 1.9	–
288.15 K, x1 = 0.3105	762.21 ± 0.24	1282.7 ± 1.9	–
288.15 K, x1 = 0.3427	765.62 ± 0.24	1284.1 ± 1.9	–
288.15 K, x1 = 0.4919	782.82 ± 0.24	1292.3 ± 1.9	–
288.15 K, x1 = 0.5438	789.38 ± 0.24	1295.8 ± 1.9	–
288.15 K, x1 = 0.5995	796.78 ± 0.24	1300.1 ± 1.9	–
288.15 K, x1 = 0.7293	815.71 ± 0.24	1312.2 ± 2	–
288.15 K, x1 = 0.7829	824.32 ± 0.24	1318.2 ± 2	–
288.15 K, x1 = 0.8993	844.93 ± 0.24	1333.7 ± 2	–
288.15 K, x1 = 0.9499	854.78 ± 0.24	1341.9 ± 2	–
293.15 K, x1 = 0.1092	739.03 ± 0.24	1256.7 ± 1.9	–
293.15 K, x1 = 0.1984	747.15 ± 0.24	1259 ± 1.9	–
293.15 K, x1 = 0.3427	761.75 ± 0.24	1264.3 ± 1.9	–
293.15 K, x1 = 0.4919	778.88 ± 0.24	1272.3 ± 1.9	–
293.15 K, x1 = 0.5438	785.41 ± 0.24	1275.7 ± 1.9	–
293.15 K, x1 = 0.5995	792.78 ± 0.24	1279.9 ± 1.9	–
293.15 K, x1 = 0.7293	811.62 ± 0.24	1291.8 ± 1.9	–
293.15 K, x1 = 0.7829	820.21 ± 0.24	1297.8 ± 1.9	–
293.15 K, x1 = 0.8993	840.73 ± 0.24	1312.9 ± 2	–
293.15 K, x1 = 0.9499	850.54 ± 0.24	1320.9 ± 2	–
293.18 K, x1 = 0.3105	758.36 ± 0.24	1262.9 ± 1.9	–
298.15 K, x1 = 0.09726	–	–	23.21 ± 0.26
298.15 K, x1 = 0.1092	735.23 ± 0.24	1236.5 ± 1.9	–
298.15 K, x1 = 0.1984	743.31 ± 0.24	1238.7 ± 1.9	–
298.15 K, x1 = 0.2	–	–	23.4 ± 0.27
298.15 K, x1 = 0.2959	–	–	23.61 ± 0.27
298.15 K, x1 = 0.3105	754.46 ± 0.24	1242.7 ± 1.9	–
298.15 K, x1 = 0.3427	757.83 ± 0.24	1244 ± 1.9	–
298.15 K, x1 = 0.4047	–	–	23.89 ± 0.27
298.15 K, x1 = 0.4919	774.88 ± 0.24	1251.8 ± 1.9	–
298.15 K, x1 = 0.4998	–	–	24.23 ± 0.27
298.15 K, x1 = 0.5374	–	–	24.37 ± 0.27
298.15 K, x1 = 0.5438	781.38 ± 0.24	1255.3 ± 1.9	–
298.15 K, x1 = 0.5995	788.72 ± 0.24	1259.3 ± 1.9	–
298.15 K, x1 = 0.6024	–	–	24.66 ± 0.27
298.15 K, x1 = 0.6962	–	–	25.15 ± 0.27
298.15 K, x1 = 0.7293	807.48 ± 0.24	1271.1 ± 1.9	–
298.15 K, x1 = 0.7829	816.03 ± 0.24	1276.9 ± 1.9	–
298.15 K, x1 = 0.8025	–	–	25.73 ± 0.27
298.15 K, x1 = 0.8914	–	–	26.33 ± 0.28
298.15 K, x1 = 0.8993	836.47 ± 0.24	1291.9 ± 1.9	–
298.15 K, x1 = 0.9499	846.25 ± 0.24	1299.8 ± 1.9	–
298.15 K, x1 = 0.9503	–	–	26.79 ± 0.28
303.15 K, x1 = 0.1092	731.39 ± 0.24	1216.6 ± 1.9	–
303.15 K, x1 = 0.1984	739.42 ± 0.24	1218.8 ± 1.9	–
303.15 K, x1 = 0.3105	750.53 ± 0.24	1222.5 ± 1.9	–
303.15 K, x1 = 0.3427	753.87 ± 0.24	1223.9 ± 1.9	–
303.15 K, x1 = 0.4919	770.85 ± 0.24	1231.6 ± 1.9	–
303.15 K, x1 = 0.5438	777.33 ± 0.24	1235 ± 1.9	–
303.15 K, x1 = 0.5995	784.63 ± 0.24	1239 ± 1.9	–
303.15 K, x1 = 0.7293	803.32 ± 0.24	1250.6 ± 1.9	–
303.15 K, x1 = 0.7829	811.82 ± 0.24	1256.3 ± 1.9	–
303.15 K, x1 = 0.8993	832.18 ± 0.24	1271.3 ± 1.9	–
303.15 K, x1 = 0.9499	841.92 ± 0.24	1278.9 ± 1.9	–
